# Source: US10328087B2, “Formulations for solubilizing hormones” (TherapeuticsMD, Inc., priority 2015, dated 2019)
# Marks after values point to notes of the source that are not given here.
# Tests used:
# [1] = tested on: ovariectomized female Crl:CD rats; experiment: Transdermal progesterone opposing estradiol effects on uterus and vagina in ovariectomized rats; assay type: in vivo, rat; conditions: for Endometrial Gland Density, LSMean / Endometrial Gland Size, LSMean / Endometrial Height, LSMean / Luminal Epithelial Cell Height, LSMean / Number of Mitotic Figures, LSMean: Day 8, EST 3 μg/kg SC alone, or with 10 mg/kg SC Prog, or with 3.125 mg/kg Dermal Prog
# Description: Transdermally delivered progesterone blocked growth-related estrogenic effects on the endometrium and vagina in ovariectomized rats.
# Thirty-two 8-week-old female Crl:CD® rats underwent ovariectomy 2 weeks prior to the start of the study. Rats were then randomly assigned to 4 groups of 8 rats each and dosed according to the schedule in Table 4. Control animals were dosed with saline or vehicle as noted. Two hours after the final dose on Day 8, the rats were humanely euthanized and the rats' vaginas and the distal portions of the rats' uterine horns were fixed and processed for histology and computer-aided morphometry.
# [2] = Solubility of progesterone in solvent (concentration for clear solution); assay type: physicochemical
# Text: Without wishing to be bound by any particular theory, it is believed that the compositions and methods described herein address the problems associated with known steroid hormone formulations such as poor solubility, poor bioavailability, and poor stability. More specifically, it has now been discovered that terpenes are unexpectedly effective in enhancing the solubility of insoluble steroid hormones such as progesterone and likewise act as excellent penetration enhancers for these same compounds. […] The compositions can also have any combination of enhanced dissolution rates, penetration capabilities, absorption, and bioavailability.
# [3] = estradiol-treated ovariectomized rats, progesterone SC or transdermally
smiles,measurement,setting,value
"C[C@]12CC[C@@H]3c4ccc(O)cc4CC[C@H]3[C@@H]1CC[C@@H]2O [EST, (17β)-estra-1,3,5(10)-triene-3,17-diol]","Endometrial Gland Density, LSMean",[1]; ovariectomized rats,7.09^b cells/mm^2
same,"Endometrial Gland Size, LSMean",[1]; ovariectomized rats,4540^b μm^2
same,"Endometrial Height, LSMean",[1]; ovariectomized rats,418^b μm
same,"Luminal Epithelial Cell Height, LSMean",[1]; ovariectomized rats,47.8^b μm
same,"Number of Mitotic Figures, LSMean",[1]; ovariectomized rats,921^b
same,effect on the uterus (organ weight measurements and histology),"[1]; unopposed estradiol treatment, ovariectomized rats",hypertrophy
"CC(=O)[C@H]1CC[C@H]2[C@@H]3CCC4=CC(=O)CC[C@]4(C)[C@H]3CC[C@]12C [Progesterone, pregn-4-ene-3,20-dione]",Concentration of Progesterone (mg/g) for clear solution,[2]; solvent Absolute Ethanol,57 mg/g
same,Concentration of Progesterone (mg/g) for clear solution,[2]; solvent d-Limonene,204.0 mg/g
same,uterine weight,"[1]; estradiol-treated ovariectomized rats receiving progesterone SC or transdermally, FIGS. 5 and 6",Significantly reduced
same,endometrial gland density compared to unopposed estradiol,[1]; [3],significant increase
same,luminal epithelial cell height compared to unopposed estradiol,[1]; [3],significant reduction
same,estrogen-specific cellular aspects in the uterus and vagina,"[1]; histology, estradiol-treated ovariectomized rats receiving progesterone SC or transdermally",not detected
same,"Endometrial Gland Density, LSMean",[1]; ovariectomized rats,"10.3^b,d cells/mm^2"
same,"Endometrial Gland Size, LSMean",[1]; ovariectomized rats,4390^b μm^2
same,"Endometrial Height, LSMean",[1]; ovariectomized rats,436^b μm
same,"Luminal Epithelial Cell Height, LSMean",[1]; ovariectomized rats,"31.91^b,d μm"
same,"Number of Mitotic Figures, LSMean",[1]; ovariectomized rats,"595^b,d"
